From patent EP0401715B1, “Aminoketone compounds” (priority 1989, dated 1990) come the findings set out here.

Structures can show the parent of a compound that is named as a salt. Where two headings read alike, the source gives them in different places.

For the assay, the target named is T1, cholinesterase (Rattus norvegicus, UniProt P37136).
T1 construct: The S₁ fraction of a cerebral cortex homogenate from male Wistar rats was used as the cholinesterase source; from tissue; host or cells: S1 fraction of cerebral cortex homogenate, male Wistar rats
T1 sequence (P37136 32-614): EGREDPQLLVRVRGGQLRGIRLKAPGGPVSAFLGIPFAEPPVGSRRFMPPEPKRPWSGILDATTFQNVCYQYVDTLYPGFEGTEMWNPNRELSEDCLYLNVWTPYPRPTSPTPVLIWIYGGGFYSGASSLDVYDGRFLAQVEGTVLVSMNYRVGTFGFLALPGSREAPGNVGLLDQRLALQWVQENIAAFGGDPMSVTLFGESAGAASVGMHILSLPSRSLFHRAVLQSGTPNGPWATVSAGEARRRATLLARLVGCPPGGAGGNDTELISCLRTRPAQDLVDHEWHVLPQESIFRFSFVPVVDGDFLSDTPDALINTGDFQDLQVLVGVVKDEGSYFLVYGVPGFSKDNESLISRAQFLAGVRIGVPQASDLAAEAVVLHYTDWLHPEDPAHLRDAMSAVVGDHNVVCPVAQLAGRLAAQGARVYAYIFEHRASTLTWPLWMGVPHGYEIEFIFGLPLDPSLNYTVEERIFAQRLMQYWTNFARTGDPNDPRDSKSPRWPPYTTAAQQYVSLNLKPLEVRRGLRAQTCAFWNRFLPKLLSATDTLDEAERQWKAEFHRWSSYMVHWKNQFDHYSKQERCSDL
Put plainly: Anticholinesterase activity using (acetyl-[³H])-acetylcholine as substrate. The assay is classed as biochemical, male Wistar rats. As for the experimental part:
The anticholinesterase activity of the compound of the invention was evaluated using (acetyl-[³H])-acetylcholine. The S₁ fraction of a cerebral cortex homogenate from male Wistar rats was used as the cholinesterase source, (acetyl-[³H])-acetylcholine as the substrate and the test compound of the invention as the test substance. The incubation was carried out for 30 minutes and after the reaction was terminated, the system was shaken with a toluene scintillator to thereby transfer [³H]-acetic acid into the toluene layer. The radioactivity in the toluene layer was then measured with a liquid scintillation counter to estimate the anticholinesterase activity of the test compound.

In turn, `CCN(CCCCCC(=O)c1ccc(N2CCCC2)cc1)Cc1ccccc1` [Example 4-2, N-Ethyl-N-(phenylmethyl)-N-[6-(4-pyrrolidinophenyl)-6-oxohexyl]amine fumarate] gave an IC50 of 310 nM.

In the case of `CCN(CCCCCC(=O)c1ccc(N2CCCC2)cc1)Cc1ccccc1OC` [Example 4-3, N-Ethyl-N-[(2-methoxyphenyl)methyl]-N-[6-(4-pyrrolidinophenyl)-6-oxohexyl]amine fumarate], the IC50 (S₁ fraction of a cerebral cortex homogenate from male Wistar rats as cholinesterase source, incubation 30 minutes, read-out: Anticholinesterase activity, IC₅₀) was found to be 50 nM.
